Measurements as given in patent US9528156B2, “Method for determining the predisposition of a patient to changed biotransformation and to the development of undesired drug effects in a treatment of the patient with atrovastatin” (Robert Bosch GmbH, priority 2009, dated 2016).

Experiments:
recombinant UGT1A3 = target: T1, recombinant UGT1A3 (Homo sapiens, UniProt P35503); conditions: among various recombinant UGT enzymes; substrate 0.6 μM and 6 μM
T1 sequence (P35503 29-534): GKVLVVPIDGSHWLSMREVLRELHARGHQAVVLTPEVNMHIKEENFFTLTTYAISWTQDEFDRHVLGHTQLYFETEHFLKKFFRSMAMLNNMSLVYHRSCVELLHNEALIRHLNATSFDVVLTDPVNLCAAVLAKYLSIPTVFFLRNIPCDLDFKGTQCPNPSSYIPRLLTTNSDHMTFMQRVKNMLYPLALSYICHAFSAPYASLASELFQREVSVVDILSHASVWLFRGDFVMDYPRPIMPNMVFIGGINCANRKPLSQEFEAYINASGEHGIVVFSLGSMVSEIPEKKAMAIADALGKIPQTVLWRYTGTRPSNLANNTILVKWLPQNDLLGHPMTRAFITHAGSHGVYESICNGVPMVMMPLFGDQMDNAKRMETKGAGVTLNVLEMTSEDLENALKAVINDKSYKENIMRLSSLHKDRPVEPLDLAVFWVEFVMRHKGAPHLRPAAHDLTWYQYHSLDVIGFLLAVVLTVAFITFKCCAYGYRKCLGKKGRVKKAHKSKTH
Method: (§1) The reaction is started by addition of 10 mM UDP glucuronic acid, the cosubstrate of the UDP glucuronosyl transferases (UGT). The samples were incubated for 30 minutes. The reaction was stopped by addition of 25 μl of ice-cold 250 mM formic acid in acetonitrile and the vortexed samples were immediately placed on ice. […] The samples were centrifuged for 5 minutes at 13,000 rpm and placed in glass vessels for the LC/MS measurement.
(§2) The samples are separated on an XBridge Shield RP18 3.5 μm column with a C8 precolumn with a 1 mM formic acid and acetonitrile gradient for 23 minutes at 30° C. The masses are detected by HCT Esquire plus mass spectrometer, this being after electrospray ionization of the substances separated by the column.

UGT1A1 = target: T2, UGT1A1 (Homo sapiens, UniProt P22309); assay: ATV lactonization by recombinant UGT1A1 (LC-MS); format: in vitro ADME; conditions: among various recombinant UGT enzymes; substrate 0.6 μM and 6 μM
T2 sequence (P22309 26-533): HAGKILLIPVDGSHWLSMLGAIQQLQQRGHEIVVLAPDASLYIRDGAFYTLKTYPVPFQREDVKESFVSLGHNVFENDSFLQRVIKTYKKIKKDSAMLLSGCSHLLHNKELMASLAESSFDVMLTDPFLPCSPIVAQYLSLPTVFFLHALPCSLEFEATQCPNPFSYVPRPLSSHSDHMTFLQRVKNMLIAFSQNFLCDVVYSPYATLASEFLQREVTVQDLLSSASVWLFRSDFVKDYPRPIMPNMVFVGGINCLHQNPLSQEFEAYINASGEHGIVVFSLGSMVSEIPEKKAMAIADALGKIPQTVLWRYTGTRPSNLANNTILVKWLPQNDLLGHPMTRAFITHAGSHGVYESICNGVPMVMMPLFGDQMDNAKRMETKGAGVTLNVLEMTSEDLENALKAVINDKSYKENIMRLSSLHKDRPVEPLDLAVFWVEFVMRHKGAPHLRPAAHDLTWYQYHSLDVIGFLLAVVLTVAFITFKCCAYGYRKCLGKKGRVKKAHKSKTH
Method: as §1, §2

UGT1A3 = conditions: human liver microsomes, genotype-phenotype correlation
Method: as §1, §2

CC(C)c1c(C(=O)Nc2ccccc2)c(-c2ccccc2)c(-c2ccc(F)cc2)n1CC[C@@H](O)C[C@@H](O)CC(=O)O [atorvastatin]
specific activity for the catalysis of the ATV lactonization (recombinant UGT1A3): highest specific activity
activity for the catalysis of the ATV lactonization (UGT1A1): only low activity
activity for ATV lactonization in homozygotic UGT1A3*2 carriers compared to wild type samples (UGT1A3): increased twofold
